Assay results published in patent US10385065B2, “Antibacterial compounds” (priority 2014, dated 2019).
Converted amounts (≈) assume the structure as drawn. Where two headings read alike, the source gives them in different places.

How the values were obtained:
Assay type in all cases: cell-based
[1] = test system: S. aureus SACPX1-SP25 MSSA - FQ resistant; test: microbe, parasite or virus in culture; conditions: Staphylococcus aureus, ATCC 29213 / MSSA, read-out: MIC S. aureus SACPX1-SP25 MSSA - FQ resistant (isogenic mutant of ATCC 29213)
[2] = test system: Enterococcus faecium ATCC 19434; test: MIC, E. faecium ATCC 19434; conditions: ATCC19434, Table 2
[3] = test system: human hepatic cell line (HepG2 ATCC HB-8065); test: Human cell viability assay (CellTiter-Glo), HepG2; conditions: HepG2, 24 h incubation, tested over 1-128 μg/mL, read-out: IC50 values against HepG2
Method in brief: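 HepG2 seeded at 20,000 cells/well, then after 24 h given two-fold serial dilutions (1-128 μg/mL, 1% DMSO) in DMEM with 0.001% FBS and 0.3% albumin. After 24 h at 37 °C, ATP luminescence (CellTiter-Glo) read; IC50 is the concentration halving viability.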

[4] = test system: S. aureus VRS1 MRSA VAN resistant; test: MIC, S. aureus VRS1; conditions: Staphylococcus aureus, Table 2
[5] = test system: Escherichia coli ATCC 25922; test: MIC, broth microdilution, E. coli ATCC 25922; conditions: ATCC25922, Table 1, wild type strain
[6] = test system: S. aureus NRS482 MRSA FQ resistant; test: MIC, S. aureus NRS482; conditions: Staphylococcus aureus; Table 2
[7] = test system: S. aureus NRS127 MRSA LZD resistant; test: MIC, S. aureus NRS127; conditions: Staphylococcus aureus; Table 2
[8] = test system: S. aureus (MRSA) ATCC 43300; test: MIC, S. aureus ATCC 43300; conditions: Staphylococcus aureus; Table 2; read-out: MIC S. aureus (MRSA) ATCC 43300 Heterogeneous MRSA strain
[9] = test system: Legionella pneumophila ATCC 33152; test: microbe, parasite or virus in culture; conditions: ATCC33152, 48 h, read-out: MIC Legionella pneumophila ATCC 33152
S. aureus NRS1 MRSA = test: MIC, S. aureus NRS1; conditions: Staphylococcus aureus; Table 2; read-out: MIC S. aureus NRS1 MRSA AMG & TET resistant
[10] = test system: Haemophilus influenzae ATCC 49247; test: MIC, H. influenzae ATCC 49247; conditions: ATCC49247, Table 4
[11] = test system: Staphylococcus aureus ATCC 29213; test: MIC, broth microdilution, S. aureus ATCC 29213
[12] = test system: S. epidermidis NRS101 MRSE; test: MIC, S. epidermidis NRS101; conditions: Staphylococcus epidermidis; Table 2; read-out: MIC S. epidermidis NRS101 MRSE AMG, ERY resistant
[13] = test system: Neisseria meningitidis ATCC 13090; test: MIC, N. meningitidis ATCC 13090; conditions: ATCC13090, Table 4, 24 h incubation
[14] = test system: Neisseria gonorrhoeae ATCC 49226; test: MIC, N. gonorrhoeae ATCC 49226; conditions: ATCC49226, Table 4, 24 h incubation
[15] = test system: Moraxella catarrhalis ATCC 25240; test: MIC, M. catarrhalis ATCC 25240; conditions: ATCC25240, Table 4
S. aureus NRS100 MRSA = test: MIC, S. aureus NRS100; conditions: Staphylococcus aureus; Table 2
[16] = ATCC29213, Table 1, wild type strain, read-out: MIC S. aureus ATCC 29213
[17] = ATCC 29213 / MSSA, Table 2, read-out: MIC S. aureus (MSSA) ATCC 29213 CLSI control strain

Row | SMILES | MIC [1] | MIC [2] | IC50 [3] | MIC [4] | MIC [5] | MIC [6] | MIC [7] | MIC [8] | MIC [9] | MIC (S. aureus NRS1 MRSA) | MIC [10] | MIC [11, 16] | MIC [11, 17] | MIC [12] | MIC [13] | MIC [14] | MIC [15] | MIC (S. aureus NRS100 MRSA)
1 | Cc1nc2c(=O)n3c4c(c(N5CC[C@H](CN)C5)c(F)cc4c2o1)OC[C@@H]3C [Compound 89, (2S)-6-[(3R)-3-(aminomethyl)pyrrolidin-1-yl]-7-fluoro-2,12-dimethyl-4,11-dioxa-1,13-diazatetracyclo[7.6.1.0^5,^16.0^10,^14]hexadeca-5(16),6,8,10(14),12-pentaen-15-one] | 1 to 10 µg/mL (≈ 2.69 to 26.9 µM) | 10 to 100 µg/mL (≈ 26.9 to 269 µM) | 10 to 100 µg/mL (≈ 26.9 to 269 µM) | 1 to 10 µg/mL (≈ 2.69 to 26.9 µM) | 1 to 10 µg/mL (≈ 2.69 to 26.9 µM) | 1 to 10 µg/mL (≈ 2.69 to 26.9 µM) | 10 to 100 µg/mL (≈ 26.9 to 269 µM) | 1 to 10 µg/mL (≈ 2.69 to 26.9 µM) | 1 to 10 µg/mL (≈ 2.69 to 26.9 µM) | 1 to 10 µg/mL (≈ 2.69 to 26.9 µM) | 1 to 10 µg/mL (≈ 2.69 to 26.9 µM) | 1 to 10 µg/mL (≈ 2.69 to 26.9 µM) | 1 to 10 µg/mL (≈ 2.69 to 26.9 µM) |  |  |  |  | 
2 | Cc1nc2c(=O)n(C3CC3)c3c(C)c(-c4ccc5cn[nH]c5c4)ccc3c2o1 [Compound 27, 5-cyclopropyl-7-(l H-indazol-6-yl)-2,6-dimethyl-oxazolo[4,5-c]quinolin-4-one] |  | > 100 µg/mL | 10 to 100 µg/mL (≈ 27 to 270 µM) | 10 to 100 µg/mL (≈ 27 to 270 µM) | 1 to 10 µg/mL (≈ 2.7 to 27 µM) | < 1 µg/mL | 10 to 100 µg/mL (≈ 27 to 270 µM) | < 1 µg/mL |  | 1 to 10 µg/mL (≈ 2.7 to 27 µM) | 1 to 10 µg/mL (≈ 2.7 to 27 µM) | < 1 µg/mL | < 1 µg/mL | < 1 µg/mL |  |  |  | 
3 | Cc1nc2c(=O)n(C3CC3)c3cc(N4CCC(CN)C4)c(F)cc3c2o1 (centres unmarked) [Compound 57, 7-[3-(aminomethyl)pyrrolidin-1-yl]-5-cyclopropyl-8-fluoro-2-methyl-oxazolo[4,5-c]quinolin-4-one] | 1 to 10 µg/mL (≈ 2.81 to 28.1 µM) | 10 to 100 µg/mL (≈ 28.1 to 281 µM) | 10 to 100 µg/mL (≈ 28.1 to 281 µM) |  | 1 to 10 µg/mL (≈ 2.81 to 28.1 µM) | 1 to 10 µg/mL (≈ 2.81 to 28.1 µM) |  |  |  | 1 to 10 µg/mL (≈ 2.81 to 28.1 µM) | 1 to 10 µg/mL (≈ 2.81 to 28.1 µM) | < 1 µg/mL | < 1 µg/mL |  | 1 to 10 µg/mL (≈ 2.81 to 28.1 µM) |  |  | 
4 | Cc1nc2c(=O)n(C3CC3)c3c(C)c(-c4ccc(C(N)=O)cc4)ccc3c2o1 [Compound 26] |  | > 100 µg/mL | > 100 µg/mL | 1 to 10 µg/mL (≈ 2.68 to 26.8 µM) | > 100 µg/mL | 1 to 10 µg/mL (≈ 2.68 to 26.8 µM) | 1 to 10 µg/mL (≈ 2.68 to 26.8 µM) | 1 to 10 µg/mL (≈ 2.68 to 26.8 µM) |  | 1 to 10 µg/mL (≈ 2.68 to 26.8 µM) | 1 to 10 µg/mL (≈ 2.68 to 26.8 µM) | < 1 µg/mL | < 1 µg/mL | < 1 µg/mL |  |  |  | 
5 | Cc1nc2c(=O)n(C3CC3)c3c(C)c(-c4ccc(N)nc4)ccc3c2o1 [Compound 23, 7-(6-amino-3-pyridyl)-5-cyclopropyl-2,6-dimethyl-oxazolo[4,5-c]quinolin-4-one] | 1 to 10 µg/mL (≈ 2.89 to 28.9 µM) | > 100 µg/mL |  | 10 to 100 µg/mL (≈ 28.9 to 289 µM) | 1 to 10 µg/mL (≈ 2.89 to 28.9 µM) | 1 to 10 µg/mL (≈ 2.89 to 28.9 µM) | 1 to 10 µg/mL (≈ 2.89 to 28.9 µM) | < 1 µg/mL |  | 1 to 10 µg/mL (≈ 2.89 to 28.9 µM) | 1 to 10 µg/mL (≈ 2.89 to 28.9 µM) | < 1 µg/mL | < 1 µg/mL | 1 to 10 µg/mL (≈ 2.89 to 28.9 µM) |  | 1 to 10 µg/mL (≈ 2.89 to 28.9 µM) |  | 
6 | Cc1nc2c(=O)n3c4c(c(N5CC[C@@H](CN)C5)c(F)cc4c2o1)OC[C@@H]3C [Compound 90, (2S)-6-[(3S)-3-(aminomethyl)pyrrolidin-1-yl]-7-fluoro-2,12-dimethyl-4,11-dioxa-1,13-diazatetracyclo[7.6.1.0^5,^16.0^10,^14]hexadeca-5(16),6,8,10(14),12-pentaen-15-one] | 1 to 10 µg/mL (≈ 2.69 to 26.9 µM) |  | 10 to 100 µg/mL (≈ 26.9 to 269 µM) | 10 to 100 µg/mL (≈ 26.9 to 269 µM) | 1 to 10 µg/mL (≈ 2.69 to 26.9 µM) | 1 to 10 µg/mL (≈ 2.69 to 26.9 µM) | 1 to 10 µg/mL (≈ 2.69 to 26.9 µM) | < 1 µg/mL | 1 to 10 µg/mL (≈ 2.69 to 26.9 µM) | 1 to 10 µg/mL (≈ 2.69 to 26.9 µM) | 1 to 10 µg/mL (≈ 2.69 to 26.9 µM) | < 1 µg/mL | < 1 µg/mL |  |  |  | 1 to 10 µg/mL (≈ 2.69 to 26.9 µM) | 
7 | Cc1c(-c2cnc3[nH]nc(N)c3c2)ccc2c3ocnc3c(=O)n(C3CC3)c12 [Compound 21, 7-(3-amino-1H-pyrazolo[3,4-b]pyridine-5-yl)-5-cyclopropyl-6-methyl-oxazolo[4,5-c]quinolin-4-one] |  | 1 to 10 µg/mL (≈ 2.69 to 26.9 µM) | 10 to 100 µg/mL (≈ 26.9 to 269 µM) | < 1 µg/mL | 10 to 100 µg/mL (≈ 26.9 to 269 µM) | < 1 µg/mL | < 1 µg/mL | < 1 µg/mL |  | < 1 µg/mL | 1 to 10 µg/mL (≈ 2.69 to 26.9 µM) | < 1 µg/mL | < 1 µg/mL | < 1 µg/mL |  |  |  | 
8 | Cc1nc2c(=O)n(C3CC3)c3cc(N4CCC(C(C)N)C4)c(F)cc3c2o1 (centres unmarked) [Compound 54, 7-[3-(1-aminoethyl)pyrrolidin-1-yl]-5-cyclopropyl-8-fluoro-2-methyl-oxazolo[4,5-c]quinolin-4-one] |  | 10 to 100 µg/mL (≈ 27 to 270 µM) | 10 to 100 µg/mL (≈ 27 to 270 µM) |  | 1 to 10 µg/mL (≈ 2.7 to 27 µM) |  |  |  |  |  | 1 to 10 µg/mL (≈ 2.7 to 27 µM) | 1 to 10 µg/mL (≈ 2.7 to 27 µM) | 1 to 10 µg/mL (≈ 2.7 to 27 µM) |  |  |  |  | 1 to 10 µg/mL (≈ 2.7 to 27 µM)
9 | Cc1c(-c2cnc3[nH]ncc3c2)ccc2c3ocnc3c(=O)n(C3CC3)c12 [Compound 20, 5-cyclopropyl-6-methyl-7-(1H-pyrazolo[3,4-b]pyridine-5-yl)oxazolo[4,5-c]quinolin-4-one] | < 1 µg/mL | 1 to 10 µg/mL (≈ 2.8 to 28 µM) | > 100 µg/mL | < 1 µg/mL | 1 to 10 µg/mL (≈ 2.8 to 28 µM) | < 1 µg/mL | < 1 µg/mL | < 1 µg/mL |  | < 1 µg/mL | < 1 µg/mL | < 1 µg/mL | < 1 µg/mL | < 1 µg/mL |  |  |  | 
10 | Cc1c(-c2cc(F)c(N)cc2F)ccc2c3scnc3c(=O)n(C3CC3)c12 [Compound 108, 7-(4-amino-2,5-difluorophenyl)-5-cyclopropyl-6-methyl-thiazolo[4,5-c]quinolin-4-one] | < 1 µg/mL | 10 to 100 µg/mL (≈ 26.1 to 261 µM) | 10 to 100 µg/mL (≈ 26.1 to 261 µM) | < 1 µg/mL | 1 to 10 µg/mL (≈ 2.61 to 26.1 µM) | < 1 µg/mL | < 1 µg/mL | < 1 µg/mL |  | < 1 µg/mL | < 1 µg/mL | < 1 µg/mL | < 1 µg/mL | < 1 µg/mL |  |  |  | 
11 | C[C@H]1COc2c(-c3cc(F)c(N)cc3F)ccc3c4ocnc4c(=O)n1c23 [Compound 93, (2S)-6-(4-amino-2,5-difluorophenyl)-2-methyl-4,11-dioxa-1,13-diazatetracyclo[7.6.1.0^5,^16.0^10,^14]hexadeca-5(16),6,8,10(14),12-pentaen-15-one] | 1 to 10 µg/mL (≈ 2.71 to 27.1 µM) | 10 to 100 µg/mL (≈ 27.1 to 271 µM) | > 100 µg/mL | 1 to 10 µg/mL (≈ 2.71 to 27.1 µM) | 1 to 10 µg/mL (≈ 2.71 to 27.1 µM) | 1 to 10 µg/mL (≈ 2.71 to 27.1 µM) |  | < 1 µg/mL | < 1 µg/mL |  | < 1 µg/mL | 1 to 10 µg/mL (≈ 2.71 to 27.1 µM) | 1 to 10 µg/mL (≈ 2.71 to 27.1 µM) |  |  | < 1 µg/mL | 1 to 10 µg/mL (≈ 2.71 to 27.1 µM) | 
